Earlier results, collected in patent publication US20040247689A1, “Process for preparing a pharmaceutical active ingredient with high specific surface area” (priority 2003, published 2004).

Compound: OCc1cc(C(O)CNCCCCCCOCCCCc2ccccc2)ccc1O (centres unmarked) [salmeterol xinafoate]
- solubility in chloroform (chloroform): slightly soluble
- solubility in ethanol (ethanol): slightly soluble
- solubility in isopropanol (isopropanol): slightly soluble
- solubility in methanol (methanol): freely soluble
- solubility in water (water): sparingly soluble
